Experimental data: ChEMBL document CHEMBL3044898, “Alkoxyphenyl methanesulfonamides: synthesis, anti-inflammatory effect, and docking studies” (Med Chem Res, 2012)

Assays:
Rattus norvegicus [1] = assay: Ulcerogenic activity in Rattus norvegicus Wistar (rat) assessed as length of lesion at 100 mg/kg, po after 6 hr (reference value: 0 mm); format: toxicity, organism-based; design: dose 100 mg/kg, route oral; details: in vivo
Rattus norvegicus [2] = assay: Anti-inflammatory activity in Rattus norvegicus Wistar (rat) assessed as inhibition of carrageenan-induced paw edema at 100 mg/kg, po administered 30 min post carrageenan challenge measured at 5 hr relative to control; format: functional
Rattus norvegicus [3] = assay: Anti-inflammatory activity in Rattus norvegicus Wistar (rat) assessed as inhibition of carrageenan-induced paw edema at 5 mg/kg, po administered 30 min post carrageenan challenge measured at 5 hr relative to control; format: functional
Rattus norvegicus [4] = assay: Ulcerogenic activity in Rattus norvegicus Wistar (rat) assessed as length of lesion at 75 mg/kg, po after 6 hr (reference value: 0 mm); format: toxicity, organism-based; design: dose 75 mg/kg, route oral; details: in vivo
Rattus norvegicus [5] = assay: Ulcerogenic activity in Rattus norvegicus Wistar (rat) assessed as length of lesion at 5 mg/kg, po after 6 hr (reference value: 0 mm); format: toxicity, organism-based; design: dose 5 mg/kg, route oral; details: in vivo
Rattus norvegicus [6] = assay: Anti-inflammatory activity in po dosed Rattus norvegicus Wistar (rat) assessed as inhibition of carrageenan-induced paw edema administered 30 min post carrageenan challenge measured at 5 hr; format: functional
Rattus norvegicus [7] = assay: Ulcerogenic activity in Rattus norvegicus Wistar (rat) assessed as length of lesion at 25 mg/kg, po after 6 hr (reference value: 0 mm); format: toxicity, organism-based; design: dose 25 mg/kg, route oral; details: in vivo
Rattus norvegicus [8] = assay: Anti-inflammatory activity in Rattus norvegicus Wistar (rat) assessed as inhibition of carrageenan-induced paw edema at 25 mg/kg, po administered 30 min post carrageenan challenge measured at 5 hr relative to control; format: functional
Rattus norvegicus [9] = assay: Anti-inflammatory activity in Rattus norvegicus Wistar (rat) assessed as inhibition of carrageenan-induced paw edema at 75 mg/kg, po administered 30 min post carrageenan challenge measured at 5 hr relative to control; format: functional
Rattus norvegicus [10] = assay: Anti-inflammatory activity in Rattus norvegicus Wistar (rat) assessed as inhibition of carrageenan-induced paw edema at 30 mg/kg, po administered 30 min post carrageenan challenge measured at 5 hr relative to control; format: functional
Rattus norvegicus [11] = assay: Ulcerogenic activity in Rattus norvegicus Wistar (rat) assessed as length of lesion at 30 mg/kg, po after 6 hr (reference value: 0 mm); format: toxicity, organism-based; design: dose 30 mg/kg, route oral; details: in vivo
Rattus norvegicus [12] = assay: Ulcerogenic activity in Rattus norvegicus Wistar (rat) assessed as length of lesion at 10 mg/kg, po after 6 hr (reference value: 0 mm); format: toxicity, organism-based; design: dose 10 mg/kg, route oral; details: in vivo

CC(=O)c1ccc(NS(C)(=O)=O)c(O)c1
Activity (Rattus norvegicus [1]): 1 mm | inhibition in vivo at 100 mg/kg (Rattus norvegicus [2]): 15.9%

CCCCCCCCOc1cc(C(C)=O)ccc1NS(C)(=O)=O
inhibition in vivo at 5 mg/kg (Rattus norvegicus [3]): 51.5% | Activity (Rattus norvegicus [4]): 2 mm | Activity (Rattus norvegicus [5]): 0 mm | ED50 (Rattus norvegicus [6]): 2.36 mg/kg | Activity (Rattus norvegicus [7]): 1 mm | inhibition in vivo at 25 mg/kg (Rattus norvegicus [8]): 62.5% | inhibition in vivo at 75 mg/kg (Rattus norvegicus [9]): 69.9%

CC(=O)c1ccc(NS(C)(=O)=O)c(OC2CCCC2)c1
inhibition in vivo at 5 mg/kg (Rattus norvegicus [3]): 58.7% | Activity (Rattus norvegicus [4]): 1 mm | Activity (Rattus norvegicus [5]): 0 mm | ED50 (Rattus norvegicus [6]): 2.31 mg/kg | Activity (Rattus norvegicus [7]): 0 mm | inhibition in vivo at 25 mg/kg (Rattus norvegicus [8]): 57.4% | inhibition in vivo at 75 mg/kg (Rattus norvegicus [9]): 69.2%

CS(=O)(=O)c1ccc(C2=C(c3ccccc3)C(=O)OC2)cc1 [ROFECOXIB]
inhibition in vivo at 30 mg/kg (Rattus norvegicus [10]): 82.8% | ED50 (Rattus norvegicus [6]): 2.61 mg/kg | Activity (Rattus norvegicus [11]): 2 mm

CCCOc1cc(C(C)=O)ccc1NS(C)(=O)=O
inhibition in vivo at 5 mg/kg (Rattus norvegicus [3]): 56.6% | Activity (Rattus norvegicus [4]): 1 mm | Activity (Rattus norvegicus [5]): 0 mm | ED50 (Rattus norvegicus [6]): 2.25 mg/kg | Activity (Rattus norvegicus [7]): 1 mm | inhibition in vivo at 25 mg/kg (Rattus norvegicus [8]): 62.1% | inhibition in vivo at 75 mg/kg (Rattus norvegicus [9]): 67.2%

CCOc1cc(C(C)=O)ccc1NS(C)(=O)=O
inhibition in vivo at 5 mg/kg (Rattus norvegicus [3]): 44% | Activity (Rattus norvegicus [4]): 1 mm | Activity (Rattus norvegicus [5]): 0 mm | ED50 (Rattus norvegicus [6]): 1.8 mg/kg | Activity (Rattus norvegicus [7]): 0 mm | inhibition in vivo at 25 mg/kg (Rattus norvegicus [8]): 54.6% | inhibition in vivo at 75 mg/kg (Rattus norvegicus [9]): 66.2%

COc1ccc2c(c1)c(CC(=O)O)c(C)n2C(=O)c1ccc(Cl)cc1 [INDOMETHACIN]
ED50 (Rattus norvegicus [6]): 2.2 mg/kg | Activity (Rattus norvegicus [12]): 19.4 mm
